Results on 11 compounds are retold here after ChEMBL document CHEMBL2203252, “Brominated aromatic furanones and related esters from the ascidian Synoicum sp” (J Nat Prod, 2012).

In general, MIC refers to the smallest concentration in the dilution series that meets the test's criterion for growth inhibition. A high value points to a need for much substance. A word on the IC50: it is the midpoint of a concentration-inhibition curve. The low end stands for greater potency in that assay, the high end for weaker potency in that assay.

≈ marks a conversion by molar mass, not a printed value.

In one data set the test system is Kocuria rhizophila. Put plainly: Antimicrobial activity against Kocuria rhizophila NBRC 12708 after 24 hrs. It is filed as functional. The conditions noted are these: NBRC 12708, 24 h.
A further data set concerns the target Isocitrate lyase (Candida albicans, UniProt Q9P8Q7). Put plainly: Inhibition of Candida albicans ATCC 10231 isocitrate lyase by spectrophotometric analysis.
The nature of data set [1]: Cytotoxicity against human K562 cells after 48 hrs by MTT assay. It is filed as cell-based. The conditions noted are these: read-out: LC50. For orientation: Tetrazolium dyes change colour on reduction, which living cells bring about.
Another data set deals with Salmonella enterica. Put plainly: Antimicrobial activity against Salmonella enterica ATCC 14028 after 24 hrs. To be noted: ATCC 14028, 24 h. It is filed as functional.
Data set [2] in a line: Inhibition of SortaseA.
For the next data set, the system named is Staphylococcus aureus. Put plainly: Antimicrobial activity against Staphylococcus aureus ATCC 6538p after 24 hrs. It is filed as functional.
The test system of the next data set is Proteus hauseri. Put plainly: Antimicrobial activity against Proteus hauseri NBRC 3851 after 24 hrs. It is filed as functional. The conditions noted are these: NBRC 3851, 24 h.
The nature of data set [3]: Inhibition of Na+/K+-ATPase by fluorometric method.
In the next data set the test system is Escherichia coli. Briefly: Antimicrobial activity against Escherichia coli ATCC 35270 after 24 hrs. It is filed as functional. The conditions noted are these: ATCC 35270, 24 h.
Another data set concerns Bacillus spizizenii. Briefly: Antimicrobial activity against Bacillus subtilis ATCC 6633 after 24 hrs. The conditions noted are these: ATCC 6633, 24 h. It is filed as functional.
Data set [4] can be described thus: Cytotoxicity against human A549 cells after 48 hrs by MTT assay. It is filed as cell-based. To be noted: read-out: LC50.

Chain of Isocitrate lyase (Q9P8Q7 whole entry): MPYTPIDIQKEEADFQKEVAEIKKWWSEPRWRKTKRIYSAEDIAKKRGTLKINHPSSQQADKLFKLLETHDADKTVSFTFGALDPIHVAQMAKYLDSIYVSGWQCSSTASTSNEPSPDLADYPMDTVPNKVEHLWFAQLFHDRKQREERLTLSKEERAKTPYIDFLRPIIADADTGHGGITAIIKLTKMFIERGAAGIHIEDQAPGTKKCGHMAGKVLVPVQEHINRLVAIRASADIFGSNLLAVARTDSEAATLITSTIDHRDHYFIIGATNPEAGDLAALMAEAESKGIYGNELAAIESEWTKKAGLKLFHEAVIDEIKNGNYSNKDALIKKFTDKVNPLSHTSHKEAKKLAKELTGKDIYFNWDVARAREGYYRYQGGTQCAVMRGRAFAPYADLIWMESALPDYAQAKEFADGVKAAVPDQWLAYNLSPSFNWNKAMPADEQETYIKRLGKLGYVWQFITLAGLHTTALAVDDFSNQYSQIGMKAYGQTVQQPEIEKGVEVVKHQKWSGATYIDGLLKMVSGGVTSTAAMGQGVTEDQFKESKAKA

As to `COc1ccc(C=C2OC(=O)C([C@@H](O)c3cc(Br)c(OC)c(Br)c3)=C2c2cc(Br)c(O)c(Br)c2)cc1`, the MIC against Kocuria rhizophila is 3.1 µg/mL (≈ 4.16 µM); with Salmonella enterica it was 3.1 µg/mL (≈ 4.16 µM); in the data set with Staphylococcus aureus, 6.3 µg/mL (≈ 8.44 µM); against Proteus hauseri, 3.1 µg/mL (≈ 4.16 µM); in the data set on Escherichia coli it was greater than 100 µg/mL; with Bacillus spizizenii, 1.6 µg/mL (≈ 2.14 µM). Further, the IC50 against Isocitrate lyase is greater than 100 µM; in [2], greater than 120 µM; in data set [3], 13.5 µM. Besides, the CC50 at 48 h in data set [1] was determined as 50.8 µM; in data set [4], 38.5 µM.
As for `COC(=O)C(C(=O)c1cc(Br)c(O)c(Br)c1)=C(C(=O)OC)c1cc(Br)c(O)c(Br)c1`, the MIC with Kocuria rhizophila is 100 µg/mL (≈ 149 µM); with Salmonella enterica it was 50 µg/mL (≈ 74.4 µM); with Staphylococcus aureus, 100 µg/mL (≈ 149 µM); against Proteus hauseri it was 100 µg/mL (≈ 149 µM); against Escherichia coli it was greater than 100 µg/mL; with Bacillus spizizenii, 50 µg/mL (≈ 74.4 µM). For the same compound, the figures for the concentration for half-maximal inhibition (IC50) (on Isocitrate lyase; in data set [2]; in [3]) were 26.3 µM, greater than 120 µM and 28 µM, respectively. Further, the values for the CC50 at 48 h in data set [1] and in [4] were 53.7 µM and 19.2 µM, respectively.
On to `COC(=O)C(C(=O)c1cc(Br)c(O)c(Br)c1)=C(C(=O)OC)c1ccc(O)c(Br)c1`, for which the MIC with Kocuria rhizophila, against Salmonella enterica, in the data set with Staphylococcus aureus, in the data set with Proteus hauseri, with Escherichia coli and against Bacillus spizizenii was greater than 100 µg/mL throughout. The IC50 was 47.6 µM against Isocitrate lyase, greater than 120 µM in [2] and 145 µM in data set [3]. For the same compound, the CC50 at 48 h is 49.7 µM in [1] and greater than 100 µM in data set [4].
On to `O=C(O)CC[N+](=O)[O-]`, for which the IC50 against Isocitrate lyase was 53.9 µM.
On to `CC1(C)S[C@@H]2[C@H](NC(=O)[C@H](N)c3ccccc3)C(=O)N2[C@H]1C(=O)O` [AMPICILLIN], for which the MIC against Kocuria rhizophila turned out to be 0.4 µg/mL (≈ 1.14 µM); in the data set with Salmonella enterica, 0.4 µg/mL (≈ 1.14 µM); in the data set with Staphylococcus aureus it was 0.4 µg/mL (≈ 1.14 µM); in the data set with Proteus hauseri it was 1.6 µg/mL (≈ 4.58 µM); against Escherichia coli, 6.3 µg/mL (≈ 18 µM); against Bacillus spizizenii, 0.4 µg/mL (≈ 1.14 µM).
For the compound `O=C1O/C(=C\c2cc(Br)c(O)c(Br)c2)C(c2ccc(O)c(Br)c2)=C1C(=O)c1cc(Br)c(O)c(Br)c1` [CADIOLIDE E], the MIC with Kocuria rhizophila is 0.8 µg/mL (≈ 1.01 µM); in the data set on Salmonella enterica it was 1.6 µg/mL (≈ 2.01 µM); in the data set on Staphylococcus aureus, 3.1 µg/mL (≈ 3.9 µM); with Proteus hauseri it was 3.1 µg/mL (≈ 3.9 µM); in the data set on Escherichia coli, greater than 100 µg/mL; against Bacillus spizizenii, 1.6 µg/mL (≈ 2.01 µM). The IC50 at Isocitrate lyase was found to be 8.9 µM; in data set [2], 78.8 µM; in [3], 2.5 µM. Moreover, the CC50 at 48 h is greater than 100 µM in data set [1] and 40.4 µM in data set [4].
As for `COc1c(Br)cc([C@H](O)C2=C(c3ccc(O)c(Br)c3)/C(=C/c3ccc(O)c(Br)c3)OC2=O)cc1Br` [CADIOLIDE G], the MIC was 3.1 µg/mL (≈ 4.23 µM) against Kocuria rhizophila; 0.8 µg/mL (≈ 1.09 µM) in the data set on Salmonella enterica; 3.1 µg/mL (≈ 4.23 µM) against Staphylococcus aureus; 3.1 µg/mL (≈ 4.23 µM) with Proteus hauseri; greater than 100 µg/mL against Escherichia coli; 12.5 µg/mL (≈ 17.1 µM) in the data set with Bacillus spizizenii. Moreover, the IC50 against Isocitrate lyase was 49.8 µM; in data set [2] it was greater than 120 µM; in data set [3], 10.3 µM. The CC50 at 48 h in data set [1] and in data set [4] was greater than 100 µM each time.
In the case of `COC(=O)C1=C(c2cc(Br)c(O)c(Br)c2)C(=O)OC1=C(c1cc(Br)c(O)c(Br)c1)c1cc(Br)c(O)c(Br)c1` [CADIOLIDE I], the MIC with Kocuria rhizophila was 0.8 µg/mL (≈ 0.885 µM); against Salmonella enterica, 1.6 µg/mL (≈ 1.77 µM); in the data set with Staphylococcus aureus, 0.8 µg/mL (≈ 0.885 µM); against Proteus hauseri it was 6.3 µg/mL (≈ 6.97 µM); in the data set with Escherichia coli, greater than 100 µg/mL; against Bacillus spizizenii, 0.8 µg/mL (≈ 0.885 µM). For the same compound, the half-inhibitory concentration (IC50) at Isocitrate lyase is 10.8 µM; in [2], greater than 120 µM; in data set [3], 5 µM. For the same compound, the values for the CC50 at 48 h in [1] and in data set [4] were 51.2 µM and 52.7 µM, respectively.
In the case of `COc1cccc2c1C(=O)c1c(O)c3c(c(O)c1C2=O)C[C@@](O)(C(=O)CO)C[C@@H]3O[C@H]1C[C@H](N)[C@H](O)[C@H](C)O1` [DOXORUBICIN], the CC50 at 48 h was 4.7 µM in data set [1] and 1.7 µM in [4].
Turning to `C[C@@H]1O[C@@H](O[C@H]2C[C@@H](O)[C@]3(CO)[C@H]4[C@H](O)C[C@]5(C)[C@@H](C6=CC(=O)OC6)CC[C@]5(O)[C@@H]4CC[C@]3(O)C2)[C@H](O)[C@H](O)[C@H]1O` [OUABAIN], 5.8 µM corresponded to half-maximal inhibition in data set [3] (IC50).
In turn, Para-Hydroxymercuribenzoic acid displayed an IC50 in data set [2] of 106 µM.
